Assay results as given in US20190201414A1, “INHIBITOR OF HEME DEGRADATION FOR USE TO IMPROVE ANTIBIOTIC TREATMENT OF MYCOBACTERIUM TUBERCULOSIS INFECTION” (The United States of America, as represented by the …, priority 2016, published 2019).
Converted amounts (≈) assume the structure as drawn. “Also recorded” adds a separate entry of the source. Where two headings read alike, the source gives them in different places.

Key:
[1] = test system: Mtb-infected bone marrow derived macrophages (BMDM); experiment: bacterial load in Mtb-infected bone marrow derived macrophages; format: cell-based; details: for reduction in the number of bacilli: iron chelating agent added to SnPPIX; for intracellular bacterial burden: iron chelating agent alone; for effect on SnPPIX-induced reduction in bacillary load: incubated in conjunction with SnPPIX; for number of bacteria: iron donor added alone
[2] = test system: M. tuberculosis strain H37Rv; experiment: micro-dilution broth MIC99 assay in GAST media; format: cell-based; details: for MIC99: read-out: day 28 MIC99; for inhibition of bacterial growth: 28-day period
[3] = test system: GFP-expressing M. tuberculosis/pMSP12; experiment: microbe, parasite or virus in culture; format: cell-based; details: for MIC: read-out: day 21 MIC95
[4] = biological target: T1, recombinant human HO-1-G139A (hHO-1) (Homo sapiens, UniProt P09601, G139A); experiment: heme degradation by recombinant human HO-1-G139A, UV/vis spectroscopy; format: biochemical; details: 2 μM SnPPIX, 1 hour
T1 construct: made in house
T1 sequence (P09601 1-288 G139A): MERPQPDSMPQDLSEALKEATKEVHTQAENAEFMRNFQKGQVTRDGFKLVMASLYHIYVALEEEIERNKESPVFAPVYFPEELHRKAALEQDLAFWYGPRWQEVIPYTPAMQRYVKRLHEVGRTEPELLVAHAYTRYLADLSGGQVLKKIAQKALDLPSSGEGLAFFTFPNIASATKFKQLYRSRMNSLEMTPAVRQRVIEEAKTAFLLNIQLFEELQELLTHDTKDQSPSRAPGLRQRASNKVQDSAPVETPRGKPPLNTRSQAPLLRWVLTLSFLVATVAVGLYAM

[5] = test system: heme oxygenase; details: comparison SnPPIX vs ZnPPIX; cited from earlier work
[6] = biological target: T2, M. tuberculosis MhuD (Mycobacterium tuberculosis, UniProt P9WKH3); experiment: MhuD heme/SnPPIX degradation assay by UV/vis spectroscopy; format: biochemical
T2 construct: His6 (C); made in house; host or cells: Escherichia coli BL21-Gold (DE3)

[7] = newborns, clinical use; cited from earlier work
[8] = test system: M. tuberculosis strain H37Rv; format: in vivo, mice
[9] = comparison ZnPPIX vs SnPPIX; cited from earlier work

T2 sequence (P9WKH3 whole entry): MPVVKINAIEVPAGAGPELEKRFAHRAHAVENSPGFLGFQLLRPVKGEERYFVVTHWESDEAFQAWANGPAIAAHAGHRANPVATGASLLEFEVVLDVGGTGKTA

Structure (SMILES): c1ccc(-c2ccccn2)nc1 [DP, 2′2′dipyridyl]
- reduction in the number of bacilli [1]: further enhancement in the reduction
- intracellular bacterial burden [1]: significant reduction

Structure (SMILES): [Cl][Fe]([Cl])[Cl] [FeCl3]
- effect on SnPPIX-induced reduction in bacillary load [1]: completely inhibited the reduction in bacillary load
- number of bacteria [1]: did not significantly enhance the number of bacteria

Structure (SMILES): O=S(=O)([O-])[O-].[Fe+2] [FeSO4]
- effect on SnPPIX-induced reduction in bacillary load [1]: completely inhibited the reduction in bacillary load
- number of bacteria [1]: did not significantly enhance the number of bacteria

Structure (SMILES): NNC(=O)c1ccncc1 [Isoniazid, reference compound]
- MIC99 ([2]; Mycobacterium tuberculosis, H37RV, 672 h, GAST + 10 μM Hemin): 0.1 µM
- MIC99 ([2]; Mycobacterium tuberculosis, H37RV, 672 h, GAST medium): 0.1 µM (≈ 0.0137 µg/mL)
- MIC99 ([2]; Mycobacterium tuberculosis, H37RV, 672 h, GASTFe medium): 0.2 µM (≈ 0.0274 µg/mL)

Structure (SMILES): Cc1ncc(CO)c(C=NNC(=O)c2ccncc2)c1O [PIH, pyridoxal isonicotinoyl hydrazone]
- reduction in the number of bacilli [1]: further enhancement in the reduction
- intracellular bacterial burden [1]: significant reduction

Structure (SMILES): CO[C@H]1/C=C/O[C@@]2(C)Oc3c(C)c(O)c4c(O)c(c(/C=N/N5CCN(C)CC5)c(O)c4c3C2=O)NC(=O)/C(C)=C\C=C\[C@H](C)[C@H](O)[C@@H](C)[C@@H](O)[C@@H](C)[C@H](OC(C)=O)[C@@H]1C [Rifampicin, reference compound]
- MIC ([3]; Mycobacterium tuberculosis, 504 h, pH 6): 0.04 µM (≈ 0.0329 µg/mL)
- MIC ([3]; Mycobacterium tuberculosis, 504 h): 0.04 µM (≈ 0.0329 µg/mL)

Structure (SMILES): C=Cc1c(C)c2cc3[nH]c(cc4nc(cc5nc(cc1[nH]2)C(C)=C5CCC(=O)[O-])C(CCC(=O)[O-])=C4C)c(C)c3C=C.[Cl-].[Cl-].[Sn+4] [SnPPIX, tin (IV) protoporphyrin IX dichloride]
- inhibition of bacterial growth ([2]; 125 μM, complete (iron-containing) GAST medium): No inhibition of bacterial growth was observed
- effect of hemin addition on toxicity in iron-free medium ([2]; 125 μM, iron-free medium plus 10 μM hemin): reversed this effect
- inhibition of bacterial growth ([2]; 125 μM, iron-free medium): toxicity was observed
- MIC99 ([2]; GAST + 10 μM Hemin): >125 µM
- MIC99 ([2]; GAST medium): 125 µM
- MIC99 ([2]; GASTFe medium): >125 µM
- heme-degrading activity of HO-1 [4]: blocked
- cellular bacterial load ([1]; added alone): reduced cellular bacterial load
- heme oxygenase inhibitory capacity [5]: higher heme oxygenase inhibitory capacity compared with ZnPPIX
- MIC ([3]; pH 6): >125 µM
- inhibition of bacterial growth ([3]; pH 7): no inhibition of bacterial growth was observed
- MIC [3]: >125 µM
- effect on heme degradation by MhuD ([6]; 2 μM SnPPIX, 5 μM MhuD-heme, 1 hour): does not appear to have an effect
- SnPPIX degradation by MhuD ([6]; monitored for 24 hours): no SnPPIX degradation even after 24 hours
- side effects [7]: minimum side effects
- effect on bacterial load by organ ([8]; C57BL/6, lungs vs mediastinal lymph nodes or spleens): more prominent in the lungs
- enhancement of RHZ efficacy ([8]; SnPPIX initiated 6 weeks after initiation of RHZ therapy): failed to enhance RHZ efficacy
- bacterial loads ([8]; TCR-α−/− mice, treatment from 4 wpi, euthanized two weeks after initiation): indistinguishable from those of untreated
- mycobacterial load ([8]; mouse, in vivo): highly significant reduction
- protection / mortality kinetics ([8]; mouse, in vivo): failed to protect
- pulmonary bacterial load ([8]; mouse, in vivo): not at 3 wpi; also recorded: no difference in bacterial loads
- reduction in pulmonary bacterial loads below untreated infected mice ([8]; mouse, in vivo): ~1 log
- bacterial loads in lungs and mediastinal lymph nodes vs non-treated mice ([8]; mouse, in vivo, ip): diminished bacterial loads
- pulmonary bacterial load ([8]; mouse, in vivo, ip, 5 mg/kg): highly significant reduction

Structure (SMILES): C=CC1=C(C)c2cc3[n-]c(cc4[n-]c(cc5nc(cc1n2)C(C)=C5C=C)c(C)c4CCC(=O)O)c(CCC(=O)O)c3C.[Zn+2] [ZnPPIX, zinc (II) protoporphyrin IX]
- solubility [9]: less soluble than SnPPIX
